Laboratory results taken from PubChem BioAssay (NCI).
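Cultured in 96-well plates, cells were exposed to test compound for 48 hours across five concentrations. GI50 is the concentration that inhibits growth by half. TGI: concentration producing complete growth inhibition.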

Columns and labels:
Assay in all cases: NCI anticancer screen, dose series, 48 h
OVCAR-8 ovarian = test system: OVCAR-8 ovarian
MOLT-4 leukemia = test system: MOLT-4 leukemia
RPMI-8226 leukemia = test system: RPMI-8226 leukemia
CAKI-1 renal = test system: CAKI-1 renal
MDA-MB-231 breast = test system: MDA-MB-231 breast
SF-268 CNS = test system: SF-268 CNS
KM12 colon = test system: KM12 colon
HOP-92 NSCLC = test system: HOP-92 NSCLC
BT-549 breast = test system: BT-549 breast
NCI-H522 lung = test system: NCI-H522 lung
SNB-19 CNS = test system: SNB-19 CNS
EKVX NSCLC = test system: EKVX NSCLC
ACHN renal = test system: ACHN renal
OVCAR-5 ovarian = test system: OVCAR-5 ovarian
UO-31 renal = test system: UO-31 renal
UACC-257 melanoma = test system: UACC-257 melanoma
SF-295 CNS = test system: SF-295 CNS
OVCAR-4 ovarian = test system: OVCAR-4 ovarian
MDA-MB-435 = test system: MDA-MB-435
SK-MEL-5 melanoma = test system: SK-MEL-5 melanoma
HS 578T breast = test system: HS 578T breast
786-0 renal = test system: 786-0 renal
A549 NSCLC = test system: A549 NSCLC
NCI/ADR-RES ovarian = test system: NCI/ADR-RES ovarian
SK-MEL-28 melanoma = test system: SK-MEL-28 melanoma
COLO 205 colon = test system: COLO 205 colon
NCI-H23 lung = test system: NCI-H23 lung
OVCAR-3 ovarian = test system: OVCAR-3 ovarian
SW-620 colon = test system: SW-620 colon
HT29 colon = test system: HT29 colon
PC-3 prostate = test system: PC-3 prostate
TK-10 renal = test system: TK-10 renal
SN12C renal = test system: SN12C renal
HL-60(TB) leukemia = test system: HL-60(TB) leukemia
IGROV1 ovarian = test system: IGROV1 ovarian
SK-OV-3 ovarian = test system: SK-OV-3 ovarian
T-47D breast = test system: T-47D breast
SK-MEL-2 melanoma = test system: SK-MEL-2 melanoma
A498 renal = test system: A498 renal
SF-539 CNS = test system: SF-539 CNS
RXF 393 renal = test system: RXF 393 renal
MALME-3M melanoma = test system: MALME-3M melanoma
HCC-2998 colon = test system: HCC-2998 colon
M14 melanoma = test system: M14 melanoma
HCT-15 colon = test system: HCT-15 colon
DU-145 prostate = test system: DU-145 prostate
K-562 leukemia = test system: K-562 leukemia
SNB-75 CNS = test system: SNB-75 CNS
U251 CNS = test system: U251 CNS
HOP-62 NSCLC = test system: HOP-62 NSCLC
UACC-62 melanoma = test system: UACC-62 melanoma
HCT-116 colon = test system: HCT-116 colon
NCI-H460 lung = test system: NCI-H460 lung

SMILES: CCC[CH2][Sn]([CH2]CCC)([CH2]CCC)[O]C(=O)CC
- GI50 (OVCAR-8 ovarian): 205 nM
- TGI (OVCAR-8 ovarian): 444 nM
- GI50 (MOLT-4 leukemia): 247 nM
- TGI (MOLT-4 leukemia): 1000 nM
- GI50 (RPMI-8226 leukemia): 169 nM
- TGI (RPMI-8226 leukemia): 506 nM
- GI50 (CAKI-1 renal): 61.1 nM
- TGI (CAKI-1 renal): 214 nM
- GI50 (MDA-MB-231 breast): 144 nM
- TGI (MDA-MB-231 breast): 343 nM
- GI50 (SF-268 CNS): 146 nM
- TGI (SF-268 CNS): 345 nM
- GI50 (KM12 colon): 135 nM
- TGI (KM12 colon): 270 nM
- GI50 (HOP-92 NSCLC): 137 nM
- TGI (HOP-92 NSCLC): 429 nM
- GI50 (BT-549 breast): 150 nM
- TGI (BT-549 breast): 344 nM
- GI50 (NCI-H522 lung): 149 nM
- TGI (NCI-H522 lung): 299 nM
- GI50 (SNB-19 CNS): 169 nM
- TGI (SNB-19 CNS): 335 nM
- GI50 (EKVX NSCLC): 121 nM
- TGI (EKVX NSCLC): 335 nM
- GI50 (ACHN renal): 170 nM
- TGI (ACHN renal): 333 nM
- GI50 (OVCAR-5 ovarian): 154 nM
- TGI (OVCAR-5 ovarian): 387 nM
- GI50 (UO-31 renal): 150 nM
- TGI (UO-31 renal): 314 nM
- GI50 (UACC-257 melanoma): 145 nM
- TGI (UACC-257 melanoma): 296 nM
- GI50 (SF-295 CNS): 238 nM
- TGI (SF-295 CNS): 746 nM
- GI50 (OVCAR-4 ovarian): 125 nM
- TGI (OVCAR-4 ovarian): 260 nM
- GI50 (MDA-MB-435): 178 nM
- TGI (MDA-MB-435): 458 nM
- GI50 (SK-MEL-5 melanoma): 139 nM
- TGI (SK-MEL-5 melanoma): 270 nM
- GI50 (HS 578T breast): 180 nM
- TGI (HS 578T breast): 708 nM
- GI50 (786-0 renal): 151 nM
- TGI (786-0 renal): 295 nM
- GI50 (A549 NSCLC): 172 nM
- TGI (A549 NSCLC): 342 nM
- GI50 (NCI/ADR-RES ovarian): 370 nM
- TGI (NCI/ADR-RES ovarian): > 100000 nM
- GI50 (SK-MEL-28 melanoma): 161 nM
- TGI (SK-MEL-28 melanoma): 318 nM
- GI50 (COLO 205 colon): 178 nM
- TGI (COLO 205 colon): 372 nM
- GI50 (NCI-H23 lung): 149 nM
- TGI (NCI-H23 lung): 615 nM
- GI50 (OVCAR-3 ovarian): 133 nM
- TGI (OVCAR-3 ovarian): 261 nM
- GI50 (SW-620 colon): 151 nM
- TGI (SW-620 colon): 301 nM
- GI50 (HT29 colon): 130 nM
- TGI (HT29 colon): 322 nM
- GI50 (PC-3 prostate): 189 nM
- TGI (PC-3 prostate): 426 nM
- GI50 (TK-10 renal): 161 nM
- TGI (TK-10 renal): 305 nM
- GI50 (SN12C renal): 158 nM
- TGI (SN12C renal): 365 nM
- GI50 (HL-60(TB) leukemia): 163 nM
- TGI (HL-60(TB) leukemia): 538 nM
- GI50 (IGROV1 ovarian): 167 nM
- TGI (IGROV1 ovarian): 397 nM
- GI50 (SK-OV-3 ovarian): 143 nM
- TGI (SK-OV-3 ovarian): 296 nM
- GI50 (T-47D breast): 166 nM
- TGI (T-47D breast): 385 nM
- GI50 (SK-MEL-2 melanoma): 186 nM
- TGI (SK-MEL-2 melanoma): 370 nM
- GI50 (A498 renal): 120 nM
- TGI (A498 renal): 256 nM
- GI50 (SF-539 CNS): 185 nM
- TGI (SF-539 CNS): 380 nM
- GI50 (RXF 393 renal): 140 nM
- TGI (RXF 393 renal): 285 nM
- GI50 (MALME-3M melanoma): 151 nM
- TGI (MALME-3M melanoma): 349 nM
- GI50 (HCC-2998 colon): 171 nM
- TGI (HCC-2998 colon): 316 nM
- GI50 (M14 melanoma): 167 nM
- TGI (M14 melanoma): 343 nM
- GI50 (HCT-15 colon): 156 nM
- TGI (HCT-15 colon): 409 nM
- GI50 (DU-145 prostate): 136 nM
- TGI (DU-145 prostate): 271 nM
- GI50 (K-562 leukemia): 237 nM
- GI50 (SNB-75 CNS): 144 nM
- TGI (SNB-75 CNS): 349 nM
- GI50 (U251 CNS): 168 nM
- TGI (U251 CNS): 327 nM
- GI50 (HOP-62 NSCLC): 188 nM
- TGI (HOP-62 NSCLC): 414 nM
- GI50 (UACC-62 melanoma): 178 nM
- TGI (UACC-62 melanoma): 405 nM
- GI50 (HCT-116 colon): 138 nM
- TGI (HCT-116 colon): 294 nM
- GI50 (NCI-H460 lung): 135 nM
- TGI (NCI-H460 lung): 281 nM
